The series in a line: Acute toxicity (LD50) in rats. The note with it: rat, in vivo. As for the experimental part: The compound for use as the active ingredient in the hepatic graft preservative composition and hepatic graft preserving method of this invention is a very safe substance with an extremely low toxic potential and, as such, can be used with advantage for the purposes of this invention. [e.g. the LD50 values of L-ascorbyl DL-α-tocopheryl phosphate potassium (hereinafter referred to briefly as EPC-K)≥5 g/kg p.o. (rats) and≥100 mg/kg i.v. (rats)].

Turning to `Cc1c(C)c2c(c(C)c1OP(=O)(O)OC1=C(O)[C@@H]([C@@H](O)CO)OC1=O)CCC(C)(CCCC(C)CCCC(C)CCCC(C)C)O2` (mixture of isomers) [EPC-K, L-Ascorbyl DL-α-tocopheryl phosphate potassium], the LD50 (in general, the dose expected to kill half of the subjects tested) was ≥ 100 mg/kg (iv, i.v. (rats)) and ≥ 5000 mg/kg (po, p.o. (rats)).

The values are drawn from patent US5660976A, “Method for preserving a liver by perfusion with or storage in a solution containing ascorbyl tocopheryl phosphodiester” (Senju Pharmaceutical Co., Ltd., priority 1994, dated 1997).
